Test results published in patent publication US7618816B2, “Metal-binding therapeutic peptides” (Ontherix, Inc., priority 2005, dated 2009).
Where no end group is shown, it is not given here.

What was measured:
Test in all cases: Uptake of SA-HRP::MBD peptide complexes
KM12 = assay type: cell-based, human; settings: for SA-HRP uptake, Cyt.: KM12, cytoplasmic; for SA-HRP uptake, Nuc.: KM12, nuclear
Method: (§1) HEK293 kidney cell line and 54 tumor cell lines obtained from the National Cancer Institute and passaged in RPMI1640 cell culture medium supplemented with 10% fetal bovine serum and 10 uM FeCl2. Uptake of streptavidin-horseradish peroxidase (SA-HRP) conjugate and of various SA-HRP::MBD peptide complexes was determined as described (Singh et al. J Biol Chem. 279 (1):477-87 [2004]) using biotinylated MBD9 ([…]) (SEQ ID NO: 10) and MBD21 ([…]) (SEQ ID NO: 4) peptides and SA-HRP. Nuclear and cytoplasmic localization of these proteins was also determined in each case. […] In order to establish the underlying molecular mechanism for this variability, we cross-linked MBD21 peptide to the following cell surface markers at 4 degrees Celsius as previously described (Singh et al. J Biol Chem. 279 (1):477-87 [2004]): transferrin receptor 1, caveolin 1, PCNA, integrins alpha v, 2, 5 and 6, integrins beta 1, 3 and 5. […] Based on the strength of these correlations, it was possible to derive crude predictive formulae for MBD-mediated uptake based on the rate of cross-linking to surface markers. Such predictive formulas could form the basis for a diagnostic procedure to select appropriate targets for MBD-based therapies.

HCC 2998 = assay type: cell-based, human; settings: for SA-HRP uptake, Cyt.: HCC 2998, cytoplasmic; for SA-HRP uptake, Nuc.: HCC 2998, nuclear
Method: as §1

MOLT4 = assay type: cell-based, human; settings: for SA-HRP uptake, Cyt.: MOLT4, cytoplasmic; for SA-HRP uptake, Nuc.: MOLT4, nuclear
Method: as §1

HOP 62 = assay type: cell-based, human; settings: for SA-HRP uptake, Cyt.: HOP 62, cytoplasmic; for SA-HRP uptake, Nuc.: HOP 62, nuclear
Method: as §1

HCT-15 = assay type: cell-based, human; settings: for SA-HRP uptake, Cyt.: HCT-15, cytoplasmic; for SA-HRP uptake, Nuc.: HCT-15, nuclear
Method: as §1

231 = assay type: cell-based, human; settings: for SA-HRP uptake, Cyt.: 231, cytoplasmic; for SA-HRP uptake, Nuc.: 231, nuclear
Method: as §1

NCI-H460 = assay type: cell-based, human; settings: for SA-HRP uptake, Cyt.: NCI-H460, cytoplasmic; for SA-HRP uptake, Nuc.: NCI-H460, nuclear
Method: as §1

CHA-59 = assay type: cell-based, human; settings: for SA-HRP uptake, Cyt.: CHA-59, cytoplasmic; for SA-HRP uptake, Nuc.: CHA-59, nuclear
Method: as §1

HS 913T = assay type: cell-based, human; settings: for SA-HRP uptake, Cyt.: cytoplasmic; for SA-HRP uptake, Nuc.: nuclear
Method: as §1

WIDR = assay type: cell-based, human; settings: for SA-HRP uptake, Cyt.: cytoplasmic; for SA-HRP uptake, Nuc.: nuclear
Method: as §1

BT-549 = assay type: cell-based, human; settings: for SA-HRP uptake, Cyt.: BT-549, cytoplasmic; for SA-HRP uptake, Nuc.: BT-549, nuclear
Method: as §1

ACHN = assay type: cell-based, human; settings: for SA-HRP uptake, Cyt.: cytoplasmic; for SA-HRP uptake, Nuc.: nuclear
Method: as §1

CCRF-CEM = assay type: cell-based, human; settings: for SA-HRP uptake, Cyt.: cytoplasmic; for SA-HRP uptake, Nuc.: nuclear
Method: as §1

OVCAR-8 = assay type: cell-based, human; settings: for SA-HRP uptake, Cyt.: OVCAR-8, cytoplasmic; for SA-HRP uptake, Nuc.: OVCAR-8, nuclear
Method: as §1

OVCAR-5 = assay type: cell-based, human; settings: for SA-HRP uptake, Cyt.: OVCAR-5, cytoplasmic; for SA-HRP uptake, Nuc.: OVCAR-5, nuclear
Method: as §1

A498 = assay type: cell-based, human; settings: for SA-HRP uptake, Cyt.: A498, cytoplasmic; for SA-HRP uptake, Nuc.: A498, nuclear
Method: as §1

NCI-H522 = assay type: cell-based, human; settings: for SA-HRP uptake, Cyt.: NCI-H522, cytoplasmic; for SA-HRP uptake, Nuc.: NCI-H522, nuclear
Method: as §1

SR = assay type: cell-based; settings: for SA-HRP uptake, Cyt.: cytoplasmic; for SA-HRP uptake, Nuc.: nuclear
Method: as §1

435 = assay type: cell-based; settings: for SA-HRP uptake, Cyt.: 435, cytoplasmic; for SA-HRP uptake, Nuc.: 435, nuclear
Method: as §1

COLON 26 = assay type: cell-based; settings: for SA-HRP uptake, Cyt.: COLON 26, cytoplasmic; for SA-HRP uptake, Nuc.: COLON 26, nuclear
Method: as §1

HEK 293 = assay type: cell-based; settings: for SA-HRP uptake, Cyt.: HEK 293, cytoplasmic; for SA-HRP uptake, Nuc.: HEK 293, nuclear
Method: as §1

PAN 02 = assay type: cell-based; settings: for SA-HRP uptake, Cyt.: PAN 02, cytoplasmic; for SA-HRP uptake, Nuc.: PAN 02, nuclear
Method: as §1

K562 = assay type: cell-based; settings: for SA-HRP uptake, Cyt.: K562, cytoplasmic; for SA-HRP uptake, Nuc.: K562, nuclear
Method: as §1

CCRF-SB = assay type: cell-based; settings: for SA-HRP uptake, Cyt.: cytoplasmic; for SA-HRP uptake, Nuc.: nuclear
Method: as §1

KKGFYKKKQCRPSKGRKRGFCWAVDKYG (cysteine pairing not given here; also: biotinylated (position not given here), complexed with SA-HRP) [MBD21]
SA-HRP uptake, Cyt. (KM12): 2.1 ng | SA-HRP uptake, Nuc. (KM12): 0.7 ng | SA-HRP uptake, Cyt. (HCC 2998): 2.1 ng | SA-HRP uptake, Nuc. (HCC 2998): 2.4 ng | SA-HRP uptake, Cyt. (MOLT4): 7.3 ng | SA-HRP uptake, Nuc. (MOLT4): 0.0 ng | SA-HRP uptake, Cyt. (HOP 62): 4.1 ng | SA-HRP uptake, Nuc. (HOP 62): 0.2 ng | SA-HRP uptake, Cyt. (HCT-15): 2.7 ng | SA-HRP uptake, Nuc. (HCT-15): 0.7 ng | SA-HRP uptake, Cyt. 231: 3.4 ng | SA-HRP uptake, Nuc. 231: 1.1 ng | SA-HRP uptake, Cyt. (NCI-H460): 11.6 ng | SA-HRP uptake, Nuc. (NCI-H460): 5.8 ng | SA-HRP uptake, Cyt. (CHA-59): 8.2 ng | SA-HRP uptake, Nuc. (CHA-59): 2.1 ng | SA-HRP uptake, Cyt. (HS 913T): 2.1 ng | SA-HRP uptake, Nuc. (HS 913T): 1.8 ng | SA-HRP uptake, Cyt. (WIDR): 2.8 ng | SA-HRP uptake, Nuc. (WIDR): 1.0 ng | SA-HRP uptake, Cyt. (BT-549): 4.8 ng | SA-HRP uptake, Nuc. (BT-549): 3.3 ng | SA-HRP uptake, Cyt. (ACHN): 8.0 ng | SA-HRP uptake, Nuc. (ACHN): 3.1 ng | SA-HRP uptake, Cyt. (CCRF-CEM): 41.3 ng | SA-HRP uptake, Nuc. (CCRF-CEM): 2.0 ng | SA-HRP uptake, Cyt. (OVCAR-8): 6.1 ng | SA-HRP uptake, Nuc. (OVCAR-8): 13.1 ng | SA-HRP uptake, Cyt. (OVCAR-5): 1.3 ng | SA-HRP uptake, Nuc. (OVCAR-5): 1.5 ng | SA-HRP uptake, Cyt. (A498): 35.3 ng | SA-HRP uptake, Nuc. (A498): 33.4 ng | SA-HRP uptake, Cyt. (NCI-H522): 5.1 ng | SA-HRP uptake, Nuc. (NCI-H522): 1.7 ng | SA-HRP uptake, Cyt. (SR): 20.9 ng | SA-HRP uptake, Nuc. (SR): 0.0 ng | SA-HRP uptake, Cyt. 435: 6.1 ng | SA-HRP uptake, Nuc. 435: 1.3 ng | SA-HRP uptake, Cyt. (COLON 26): 8.9 ng | SA-HRP uptake, Nuc. (COLON 26): 2.2 ng | SA-HRP uptake, Cyt. (HEK 293): 13.6 ng | SA-HRP uptake, Nuc. (HEK 293): 4.5 ng | SA-HRP uptake, Cyt. (PAN 02): 9.3 ng | SA-HRP uptake, Nuc. (PAN 02): 2.2 ng | SA-HRP uptake, Cyt. (K562): 2.8 ng | SA-HRP uptake, Nuc. (K562): 1.1 ng | SA-HRP uptake, Cyt. (CCRF-SB): 1.7 ng | SA-HRP uptake, Nuc. (CCRF-SB): 0.1 ng

KKGFYKKKKQCRPSKGRKRGFCWNGRK [MBD9]
SA-HRP uptake, Cyt. (KM12): 3.6 ng | SA-HRP uptake, Nuc. (KM12): 1.0 ng | SA-HRP uptake, Cyt. (HCC 2998): 4.6 ng | SA-HRP uptake, Nuc. (HCC 2998): 3.7 ng | SA-HRP uptake, Cyt. (MOLT4): 12.7 ng | SA-HRP uptake, Nuc. (MOLT4): 0.0 ng | SA-HRP uptake, Cyt. (HOP 62): 12.0 ng | SA-HRP uptake, Nuc. (HOP 62): 0.9 ng | SA-HRP uptake, Cyt. (HCT-15): 4.0 ng | SA-HRP uptake, Nuc. (HCT-15): 0.8 ng | SA-HRP uptake, Cyt. 231: 9.6 ng | SA-HRP uptake, Nuc. 231: 2.6 ng | SA-HRP uptake, Cyt. (NCI-H460): 30.3 ng | SA-HRP uptake, Nuc. (NCI-H460): 5.6 ng | SA-HRP uptake, Cyt. (CHA-59): 24.7 ng | SA-HRP uptake, Nuc. (CHA-59): 9.7 ng | SA-HRP uptake, Cyt. (HS 913T): 3.4 ng | SA-HRP uptake, Nuc. (HS 913T): 1.1 ng | SA-HRP uptake, Cyt. (WIDR): 3.4 ng | SA-HRP uptake, Nuc. (WIDR): 0.7 ng | SA-HRP uptake, Cyt. (BT-549): 7.2 ng | SA-HRP uptake, Nuc. (BT-549): 2.1 ng | SA-HRP uptake, Cyt. (ACHN): 9.6 ng | SA-HRP uptake, Nuc. (ACHN): 2.9 ng | SA-HRP uptake, Cyt. (CCRF-CEM): 46.2 ng | SA-HRP uptake, Nuc. (CCRF-CEM): 1.8 ng | SA-HRP uptake, Cyt. (OVCAR-8): 3.9 ng | SA-HRP uptake, Nuc. (OVCAR-8): 5.0 ng | SA-HRP uptake, Cyt. (OVCAR-5): 2.7 ng | SA-HRP uptake, Nuc. (OVCAR-5): 1.2 ng | SA-HRP uptake, Cyt. (A498): 28.5 ng | SA-HRP uptake, Nuc. (A498): 12.4 ng | SA-HRP uptake, Cyt. (NCI-H522): 9.1 ng | SA-HRP uptake, Nuc. (NCI-H522): 3.7 ng | SA-HRP uptake, Cyt. (SR): 24.4 ng | SA-HRP uptake, Nuc. (SR): 0.0 ng | SA-HRP uptake, Cyt. 435: 8.6 ng | SA-HRP uptake, Nuc. 435: 2.7 ng | SA-HRP uptake, Cyt. (COLON 26): 11.3 ng | SA-HRP uptake, Nuc. (COLON 26): 2.3 ng | SA-HRP uptake, Cyt. (HEK 293): 20.2 ng | SA-HRP uptake, Nuc. (HEK 293): 20.1 ng | SA-HRP uptake, Cyt. (PAN 02): 25.8 ng | SA-HRP uptake, Nuc. (PAN 02): 7.0 ng | SA-HRP uptake, Cyt. (K562): 2.6 ng | SA-HRP uptake, Nuc. (K562): 1.3 ng | SA-HRP uptake, Cyt. (CCRF-SB): 2.6 ng | SA-HRP uptake, Nuc. (CCRF-SB): 0.6 ng
